Laboratory results published in publication PMC8286840, “Identifying SARS-CoV-2 antiviral compounds by screening for small molecule inhibitors of Nsp3 papain-like protease” (Biochemical Journal, 2021).
Structures can show the parent of a compound that is named as a salt. Where two headings read alike, the source gives them in different places.

Key:
[1] = target: T1, SARS-CoV-2 PLpro (nsp3 1564–1878) (Severe acute respiratory syndrome coronavirus 2, UniProt P0DTD1); experiment: biochemical; set-up: FRET-quenched peptide (Pro3) cleavage by PLpro, 10 min pre-incubation, slope over 20 min, normalised to no-compound control; details: high concentration screen, read-out: % of control remaining
[2] = target: T1, SARS-CoV-2 PLpro (nsp3 1564–1878); experiment: biochemical; set-up: FRET-quenched peptide (Pro3) cleavage by PLpro, 10 min pre-incubation, slope over 20 min, normalised to no-compound control; details: low concentration screen, read-out: % of control remaining

## Nc1ccn([C@@H]2O[C@H](CO)[C@@H](O)[C@H]2O)c(=O)n1 [Cytidine]
[1]; Well no.=5054
  remaining activity at 3.75 µM: 100%
[1]; Well no.=6205
  remaining activity at 3.75 µM: 110%
[1]; Well no.=8014
  remaining activity at 3.75 µM: 97.3%
[2]; Well no.=5054
  remaining activity at 1.25 µM: 97.5%
[2]; Well no.=6205
  remaining activity at 1.25 µM: 108%
[2]; Well no.=8014
  remaining activity at 1.25 µM: 98.6%

## C=C1[C@@H](C)[C@H]2[C@H](Cc3ccccc3)NC(=O)[C@]23OC(=O)/C=C/[C@H](O)CCC[C@@H](C)C/C=C/[C@H]3[C@@H]1O [Cytochalasin B]
[1]; Well no.=3189
  remaining activity at 3.75 µM: 98.1%
[2]; Well no.=3189
  remaining activity at 1.25 µM: 98%

## C=C1[C@@H](C)[C@H]2[C@H](Cc3ccccc3)NC(=O)[C@]23[C@H](OC(C)=O)/C=C/[C@@](C)(O)C(=O)[C@@H](C)C/C=C/[C@H]3[C@@H]1O [Cytochalasin D]
[1]; Well no.=3581
  remaining activity at 3.75 µM: 99.7%
[2]; Well no.=3581
  remaining activity at 1.25 µM: 98.2%

## C[C@H]1C/C=C/[C@H]2[C@@H]3O[C@]3(C)[C@@H](C)[C@H]3[C@H](Cc4ccccc4)NC(=O)[C@]32OC(=O)O/C=C/[C@@](C)(O)C1=O [Cytochalasin E]
[1]; Well no.=3627
  remaining activity at 3.75 µM: 103%
[2]; Well no.=3627
  remaining activity at 1.25 µM: 101%

## Nc1ccn([C@@H]2O[C@H](CO)[C@@H](O)[C@@H]2O)c(=O)n1 [Cytosine-1-beta-D-arabinofuranoside hydrochloride]
[1]; Well no.=374
  remaining activity at 3.75 µM: 89.3%
[2]; Well no.=374
  remaining activity at 1.25 µM: 94.2%

## Nc1cc[nH]c(=O)n1 [Cytosine]
[1]; Well no.=6579
  remaining activity at 3.75 µM: 103%
[2]; Well no.=6579
  remaining activity at 1.25 µM: 101%

## CCCCCCCC(=O)c1c(O)cc(O)cc1CC(=O)OCC [Cytosporone B]
[1]; Well no.=5993
  remaining activity at 3.75 µM: 98.7%
[2]; Well no.=5993
  remaining activity at 1.25 µM: 98.3%

## N[C@H](CCCCCP(=O)(O)O)C(=O)O [D(-)-2-Amino-7-phosphonoheptanoic acid]
[1]; Well no.=352
  remaining activity at 3.75 µM: 98.1%
[2]; Well no.=352
  remaining activity at 1.25 µM: 96.5%

## CC[C@@H](N)C(=O)O [D(-)-2-Aminobutyric acid]
[1]; Well no.=7701
  remaining activity at 3.75 µM: 92.5%
[2]; Well no.=7701
  remaining activity at 1.25 µM: 97.2%

## C[C@@H](N)C(=O)O [D-Alanine]
[1]; Well no.=7693
  remaining activity at 3.75 µM: 105%
[2]; Well no.=7693
  remaining activity at 1.25 µM: 107%

## OC[C@@H](O)C(O)[C@H](O)CO [D-Arabitol]
[1]; Well no.=6501
  remaining activity at 3.75 µM: 93.2%
[2]; Well no.=6501
  remaining activity at 1.25 µM: 92.6%

## N[C@@H]1CONC1=O [D-Cycloserine]
[1]; Well no.=78
  remaining activity at 3.75 µM: 102%
[2]; Well no.=78
  remaining activity at 1.25 µM: 100%

## O=C[C@H](O)[C@@H](O)[C@@H](O)[C@H](O)CO [D-Galactose]
[1]; Well no.=6871
  remaining activity at 3.75 µM: 96.9%
[2]; Well no.=6871
  remaining activity at 1.25 µM: 103%

## O=C[C@H](O)[C@@H](O)[C@H](O)[C@H](O)COP(=O)(O)O [D-Glucose 6-Phosphate]
[1]; Well no.=7263
  remaining activity at 3.75 µM: 98.1%
[2]; Well no.=7263
  remaining activity at 1.25 µM: 98.2%

## OC[C@@H](O)[C@@H](O)[C@H](O)[C@H](O)CO [D-Mannitol]
[1]; Well no.=6397
  remaining activity at 3.75 µM: 96.4%
[1]; Well no.=8434
  remaining activity at 3.75 µM: 96.1%
[2]; Well no.=6397
  remaining activity at 1.25 µM: 104%
[2]; Well no.=8434
  remaining activity at 1.25 µM: 96.7%

## OC[C@H]1OC(O)[C@@H](O)[C@@H](O)[C@@H]1O (stereo partly drawn) [D-Mannose]
[1]; Well no.=7407
  remaining activity at 3.75 µM: 102%
[2]; Well no.=7407
  remaining activity at 1.25 µM: 103%

## N[C@H](CO)C(=O)O [D-Serine]
[1]; Well no.=1362
  remaining activity at 3.75 µM: 93.5%
[2]; Well no.=1362
  remaining activity at 1.25 µM: 92.8%

## OC[C@@H](O)[C@@H](O)[C@H](O)[C@@H](O)CO [D-Sorbitol]
[1]; Well no.=6253
  remaining activity at 3.75 µM: 112%
[2]; Well no.=6253
  remaining activity at 1.25 µM: 115%

## CCCCCCCCCCCCCC(=O)N[C@H](C)[C@@H](O)c1ccccc1 [D-erythro MAPP]
[1]; Well no.=4257
  remaining activity at 3.75 µM: 98.9%
[2]; Well no.=4257
  remaining activity at 1.25 µM: 105%

## CCCCCCCCCCCCC/C=C/[C@@H](O)[C@@H](N)CO [D-erythro-Sphingosine]
[1]; Well no.=7207
  remaining activity at 3.75 µM: 96.9%
[2]; Well no.=7207
  remaining activity at 1.25 µM: 100%

## NC(=O)CC[C@@H](N)C(=O)O [D-glutamine]
[1]; Well no.=4996
  remaining activity at 3.75 µM: 99.6%
[2]; Well no.=4996
  remaining activity at 1.25 µM: 98.2%

## Nc1cccc(S(=O)(=O)N2CCCN(S(=O)(=O)c3ccc4c(c3)OCCO4)CC2)c1 [DASA-58]
[1]; Well no.=8818
  remaining activity at 3.75 µM: 96.9%
[2]; Well no.=8818
  remaining activity at 1.25 µM: 95.3%

## Clc1ccc(N2C[C@H]3CC[C@@H](C2)N3)nn1 [DBO-83]
[1]; Well no.=630
  remaining activity at 3.75 µM: 98.1%
[2]; Well no.=630
  remaining activity at 1.25 µM: 63.4%

## CCCCc1ccc(NS(=O)(=O)c2ccc(F)cc2)cc1 [DC260126]
[1]; Well no.=6272
  remaining activity at 3.75 µM: 94.3%
[2]; Well no.=6272
  remaining activity at 1.25 µM: 94.7%

## CCn1c(=O)[nH]c2cc(Cl)c(Cl)cc21 [DCEBIO]
[1]; Well no.=538
  remaining activity at 3.75 µM: 104%
[2]; Well no.=538
  remaining activity at 1.25 µM: 102%

## CCC(=O)N1CCN(C(=O)c2ccccc2)CC1 [DM 235]
[1]; Well no.=453
  remaining activity at 3.75 µM: 96%
[2]; Well no.=453
  remaining activity at 1.25 µM: 96.3%

## COc1cc(OC)c2cc(-c3ccncc3)cnc2c1 [DMPQ dihydrochloride]
[1]; Well no.=5933
  remaining activity at 3.75 µM: 98.1%
[2]; Well no.=5933
  remaining activity at 1.25 µM: 100%

## CC(=O)c1ccc(N2CCOCC2)cc1O [DNA-PK Inhibitor III]
[1]; Well no.=2365
  remaining activity at 3.75 µM: 105%
[2]; Well no.=2365
  remaining activity at 1.25 µM: 104%

## O=C(c1ccccc1)c1ccc(N2CCOCC2)cc1O [DNA-PK Inhibitor V]
[1]; Well no.=2657
  remaining activity at 3.75 µM: 101%
[2]; Well no.=2657
  remaining activity at 1.25 µM: 95.5%

## Cc1nc2c(c(=O)[nH]1)CSCC2 [DR2313]
[1]; Well no.=5778
  remaining activity at 3.75 µM: 96.7%
[2]; Well no.=5778
  remaining activity at 1.25 µM: 96.1%

## c1ccc2c(c1)N=C(N1CCNCC1)c1ccccc1N2 [DREADD agonist 21]
[1]; Well no.=6943
  remaining activity at 3.75 µM: 100%
[2]; Well no.=6943
  remaining activity at 1.25 µM: 96.4%

## CCN(CCCl)Cc1ccccc1Br [DSP-4 hydrochloride]
[1]; Well no.=284
  remaining activity at 3.75 µM: 98%
[2]; Well no.=284
  remaining activity at 1.25 µM: 98.1%

## CCCCCCOC(=O)NC(=N)c1ccc(NCc2nc3cc(C(=O)N(CCC(=O)OCC)c4ccccn4)ccc3n2C)cc1 [Dabigatran Etexilate]
[1]; Well no.=8192
  remaining activity at 3.75 µM: 82.3%
[2]; Well no.=8192
  remaining activity at 1.25 µM: 95.6%

## CN(C)/N=N/c1[nH]cnc1C(N)=O [Dacarbazine]
[1]; Well no.=1940
  remaining activity at 3.75 µM: 99.4%
[2]; Well no.=1940
  remaining activity at 1.25 µM: 103%

## COc1cc2ncnc(Nc3ccc(F)c(Cl)c3)c2cc1NC(=O)/C=C/CN1CCCCC1 [Dacomitinib (PF299804,PF-00299804)]
[1]; Well no.=5027
  remaining activity at 3.75 µM: 95.4%
[2]; Well no.=5027
  remaining activity at 1.25 µM: 94.2%

## O=c1c(-c2ccc(O)cc2)coc2cc(O)ccc12 [Daidzein]
[1]; Well no.=438
  remaining activity at 3.75 µM: 99.2%
[1]; Well no.=3219
  remaining activity at 3.75 µM: 104%
[2]; Well no.=438
  remaining activity at 1.25 µM: 102%
[2]; Well no.=3219
  remaining activity at 1.25 µM: 103%
